# Data as given in US20260216119A1, “NOVEL SOLUTIONS” (priority 2022, published 2026).
# How the values were obtained:
# [1] = ambient conditions
# Description: A solution that remains intact to an extent acceptable for pharmaceutical use for the time required between preparing the solution and administering it to the patient (for example 2 hours, for example 1 hour) is considered herein to be “stable”.
# [2] = Calculated concentrations based on ventricle and CSF volumes; assay type: in vivo; conditions: dog; for Cmax: Beagle, icv or intrathecal, ventricle volume 2 ml; for Cmax CSF: CSF volume 20 mL
# [3] = Description: 0.79 g Cremophor EL (Trade Mark) was weighed in an Erlenmeyer flask, and 60 mL aCSF (obtained from Tocris Pharma) was added. […] The solution was then placed in an ultrasonic bath maintained at 25-28° C. for 20 minutes. […] The solution was ultrasonicated for another 25 minutes.
# The mixture was then filtered using a Millipore Millex-LG, PTFE, 0.20 μm filter (SLLG025SS).
# 500 μL Cremophor EL was pipetted into an Erlenmeyer flask containing 40 mL in-house prepared aCSF. […] An additional 10 minutes of ultrasonication was carried out to ensure complete dissolution.
# [4] = biological target: MEK2 (Homo sapiens, UniProt P36507); conditions: cited from earlier work
# MEK2, sequence (P36507 whole entry, species assumed): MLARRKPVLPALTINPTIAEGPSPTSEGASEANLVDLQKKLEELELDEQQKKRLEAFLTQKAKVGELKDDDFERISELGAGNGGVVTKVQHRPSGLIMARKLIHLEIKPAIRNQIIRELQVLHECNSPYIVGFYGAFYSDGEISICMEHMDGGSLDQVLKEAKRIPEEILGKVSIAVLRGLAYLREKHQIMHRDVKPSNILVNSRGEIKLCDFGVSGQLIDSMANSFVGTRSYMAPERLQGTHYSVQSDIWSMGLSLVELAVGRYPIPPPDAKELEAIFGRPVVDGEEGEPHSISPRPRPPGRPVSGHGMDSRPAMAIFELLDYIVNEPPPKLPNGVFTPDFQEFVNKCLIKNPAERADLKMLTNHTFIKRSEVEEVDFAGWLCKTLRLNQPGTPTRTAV
# [5] = tested on: female rats; conditions: cited from earlier work
# [6] = tested on: rats; conditions: in 0.5% Cremophor in aqueous solution; cited from earlier work
structure (smiles),measurement,setting,value
"N#CC(=C(/N)Sc1ccccc1N)/C(C#N)=C(\N)Sc1ccccc1N [Example U0126, 1,4-Diamino-2,3-dicyano-1,4-bis(o-aminophenylmercapto) butadiene]",time solid form remains intact,[1],several decades
same,Cmax,[2]; 20 μM/0.5 mL,5 µM
same,Cmax,[2]; 100 μM/0.5 mL,25 µM
same,Cmax,[2]; 200 μM/0.5 mL,50 µM
same,Cmax CSF,[2]; 20 μM/0.5 mL,0.5 µM
same,Cmax CSF,[2]; 100 μM/0.5 mL,2.5 µM
same,Cmax CSF,[2]; 200 μM/0.5 mL,5 µM
same,measured content of U0126,"[3]; Example 2, clear solution after 0.20 μm PTFE filtration, 0.5% v/v Cremophor EL in aCSF",68 µM
same,U0126 content of filtered samples,"[3]; Example 3, 0.5% Cremophor EL in aCSF, pH 8.6, after 0.20 μm PTFE filtration",85 to 99 µM
same,inhibitor of MEK2,[4],inhibitor
same,long-term neurologic outcome after stroke,[5],improves long-term neurologic outcome
same,maximum tolerated intracerebroventricular (ICV) concentration in vivo,[6],10 µM
